This is an account of results in patent US10954287B2, “Ras binding peptides and methods of use” (Ra Pharmaceuticals, Inc., priority 2016, dated 2021).

The test deals with GMPPNP-loaded H-Ras or GTP-loaded K-Ras. The test can be described thus: Fluorescence polarization competition assay with TAMRA-labeled probe R4007. The conditions noted are these: 120 nM Ras, 30 nM probe R4007, 60 minutes at room temperature; read-out: Probe displacement (nM IC50). It counts as binding, human. Here is the method:
R4000 was evaluated for competition with a TAMRA labeled probe (R4007) based on peptide R4000. The assay was performed in 384-well black, non-binding plates (Greiner Bio-One, Monroe, N.C.). GMPPNP-loaded H-Ras or GTP-loaded K-Ras, diluted in FP assay buffer (20 mM Tris-HCl, pH 7.5, 50 mM NaCl, 5 mM MgCl2, 1 mM EDTA, 0.002% Triton-X-100) for a final concentration of 120 nM was incubated with 30 nM R4007 for 20 minutes at room temperature. R4000 was serially diluted, added to the assay and incubated for 60 minutes at room temperature. Fluorescence polarization was detected with a SpectraMax Paradigm plate reader (Molecular Devices, Sunnyvale, Calif.) using the Rhodamine FP detection cartridge (535 nm/595 nm). Data was analyzed using GraphPad Prism and Ki determined using One Site Ki Curve fitting model.
Peptides were evaluated for competition with R4007, a probe consisting of TAMRA-labeled R4000, using a fluorescence polarization (FP) competition assay. The assay was performed in 384-well black, non-binding plates (Greiner Bio-One, Monroe, N.C.). GMPPNP-loaded H-Ras or GTP- loaded K-Ras, diluted in FP assay buffer (20 mM Tris-HCl, pH 7.5, 50 mM NaCl, 5 mM MgCl2, 1 mM EDTA, 0.002% Triton-X-100) for a final concentration of 120 nM was incubated with 30 nM probe for 20 minutes at room temperature. Peptides were serially diluted, added to the assay and incubated for 60 minutes at room temperature. Fluorescence was detected with a SpectraMax Paradigm plate reader (Molecular Devices, Sunnyvale, Calif.) using the Rhodamine FP detection cartridge (535 nm/595 nm). Data was analyzed and Ki determined using a One Site Ki Curve fitting model. Percent inhibition for each data point was calculated relative to the maximal binding in test compound-free control wells (showing no probe displacement) and Ras-free control wells (showing no probe binding) and the half-maximal inhibitory concentration (IC50), based on probe displacement, was determined.

*1 amine or outer side, *2 acyl side, *3 side chain or, on linkers, in order; H or OH if unused. Bridges are numbered along the chain shown (N, C = ends). [ ]: non-standard residue; d: D form. The star is where a group is joined. ξ: configuration not given here. 4‑(dimethylamino)benzoyl‑d4 = DMABZK2: N6-(4-(dimethylamino)benzoyl-2,3,5,6-d4)-L-lysine, [2H]c1c([2H])c(N(C)C)c([2H])c([2H])c1C(=O)*; DAPTZAC2 = (S)-3-(4-(2-acrylamidoethyl)-1H-1,2,3-triazol-1-yl)-2-aminopropanoic acid, C=CC(=O)NCCc1cn(C[C@H](N[*:1])C(=O)[*:2])nn1; ADTZPA = (S)-2-amino-3-(1-dodecyl-1H-1,2,3-triazol-4-yl)propanoic acid; m‑xylylene = m-xylylene thioether bridge between Cys; Trp(7-aza) = N[C@@H](Cc1c[nH]c2ncccc12)C(=O)O; NMePhe(4-F) = CN[C@@H](Cc1ccc(F)cc1)C(=O)O; PEG4 = NCCOCCOCCOCCOCCC(=O)O; Phg = N[C@H](C(=O)O)c1ccccc1; Tle = CC(C)(C)[C@H](N)C(=O)O; ξPhg = NC(C(=O)O)c1ccccc1; NMeA = CN[C@@H](C)C(=O)O; Nva = CCC[C@H](N)C(=O)O; Sar = CNCC(=O)O

Turning to `C=CC(=O)NC[C@@H]1NC(=O)[C@H](C)NC(=O)[C@H](C(C)(C)C)NC(=O)[C@H](Cc2ccc(O)cc2)NC(=O)[C@@H](NC(=O)[C@H](CCC)NC(C)=O)CSCc2cccc(c2)CSC[C@@H](C(N)=O)NC(=O)CN(C)C(=O)[C@H](Cc2ccc(F)cc2)N(C)C(=O)[C@H](Cc2ccc(O)cc2)NC(=O)[C@H](Cc2c[nH]c3ncccc23)NC(=O)[C@H](c2ccccc2)NC(=O)[C@H](C)N(C)C1=O` (relative stereo) [Compound R4136, ACE-NVA-CYS*-TYR-TBG-ALA-DABAC2-NMA-PHG-7AW-TYR-MFF-SAR-CYS*-NH2], the 50% inhibitory concentration (IC50) came out at 392 nM.

As to “ACE-NVA-CYS*-TYR-TBG-DMABZK2-HIS-NMA-PHG-7AW-TYR-MFF-SAR-CYS*-NH2 (Ac-[Nva]CY[Tle]K(4‑(dimethylamino)benzoyl‑d4)H[NMeA][Phg][Trp(7-aza)]Y[NMePhe(4-F)][Sar]C-NH2; linker 2-13 via m‑xylylene) [Compound R4150, cyclized by a m-xylylene thioether bridge]”, the IC50 is 7640 nM.

As for `CCC[C@H](NC(C)=O)C(=O)N[C@H]1CSCc2cccc(c2)CSC[C@@H](C(=O)NCC(=O)NCC(=O)NCC(=O)N[C@@H](CS)C(=O)N[C@@H](C)C(=O)N[C@H](C(=O)N[C@@H](CC(C)C)C(N)=O)[C@@H](C)CC)NC(=O)CN(C)C(=O)[C@H](Cc2ccc(F)cc2)N(C)C(=O)[C@H](Cc2ccc(O)cc2)NC(=O)[C@H](Cc2c[nH]c3ncccc23)NC(=O)[C@H](c2ccccc2)NC(=O)[C@H](C)N(C)C(=O)[C@H](Cc2c[nH]cn2)NC(=O)[C@H](CCCCN)NC(=O)[C@H](C(C)(C)C)NC(=O)[C@H](Cc2ccc(O)cc2)NC1=O` (relative stereo) [Compound R4120, ACE-NVA-CYS*-TYR-TBG-LYS-HIS-NMA-PHG-S7AW-TYR-MFF-AR-CYS*-GLY-GLY-GLY-CYS-ALA-ILE-LEU-NH2], the IC50 was 65.7 nM.

On to “ACE-NVA-CYS*-TYR-TBG-LYS-HIS-NMA-PHG-7AW-TYR-MFF-SAR-CYS*-PEG4PA-ADTZPA-NH2 (Ac-[Nva]CY[Tle]KH[NMeA][Phg][Trp(7-aza)]Y[NMePhe(4-F)][Sar]C-{PEG4-ADTZPA-NH2}; linker 2-13 via m‑xylylene) [Compound R4147, cyclized by a m-xylylene thioether bridge]”, for which the IC50 is 5190 nM.

For the compound `CCC[C@H](NC(C)=O)C(=O)N[C@H]1CSCc2cccc(c2)CSC[C@@H](C(N)=O)NC(=O)CN(C)C(=O)[C@H](Cc2ccc(F)cc2)N(C)C(=O)[C@H](Cc2ccc(O)cc2)NC(=O)[C@H](Cc2c[nH]c3ncccc23)NC(=O)[C@H](c2ccccc2)NC(=O)[C@H](C)N(C)C(=O)[C@H](CCN)NC(=O)[C@H](C)NC(=O)[C@H](C(C)(C)C)NC(=O)[C@H](Cc2ccc(O)cc2)NC1=O` (relative stereo) [Compound R4140, ACE-NVA-CYS*-TYR-TBG-ALA-DBA-NMA-PHG-7AW-TYR-MFF-SAR-CYS*-NH2], the half-maximal inhibitory concentration (IC50) was 608 nM.

As to “ACE-NVA-SER-TYR-TBG-ALA-DAPTZAC2-NMA-RPHG-7AW-TYR-MFF-SAR-SER-NH2 (Ac-[Nva]SY[Tle]A[DAPTZAC2][NMeA][ξPhg][Trp(7-aza)]Y[NMePhe(4-F)][Sar]S-NH2) [Compound R4151, linear]”, the half-inhibitory concentration (IC50) was 12200 nM.

For `CCC[C@H](NC(C)=O)C(=O)N[C@H]1CSCc2cccc(c2)CSC[C@@H](C(=O)NCC(=O)NCC(=O)NCC(=O)N[C@@H](CS)C(=O)N[C@H](C(=O)N[C@H](C(=O)N[C@@H](CCSC)C(=O)O)[C@@H](C)CC)C(C)C)NC(=O)CN(C)C(=O)[C@H](Cc2ccc(F)cc2)N(C)C(=O)[C@H](Cc2ccc(O)cc2)NC(=O)[C@H](Cc2c[nH]c3ncccc23)NC(=O)[C@H](c2ccccc2)NC(=O)[C@H](C)N(C)C(=O)[C@H](Cc2c[nH]cn2)NC(=O)[C@H](CCCCN)NC(=O)[C@H](C(C)(C)C)NC(=O)[C@H](Cc2ccc(O)cc2)NC1=O` (relative stereo) [Compound R4131, ACE-NVA-CYS*-TYR-TBG-LYS-HIS-NMA-PHG-7AW-TYR-MFF-SAR-CYS*-GLY-GLY-GLY-CYS-VAL-ILE-MET], the IC50 is 278 nM.
